In PMC10882719 (Frontiers in Neuroscience, 2024):
Read-outs that look alike come from different tables or passages of the source.

How the values were obtained:
Type in all cases: cell-based
168 GPCRs [1] = target: T1, 168 GPCRs (Homo sapiens, UniProt P18089); settings: ADRA2B
T1 construct: host or cells: PathHunter cell lines
T1 sequence (P18089 1-450): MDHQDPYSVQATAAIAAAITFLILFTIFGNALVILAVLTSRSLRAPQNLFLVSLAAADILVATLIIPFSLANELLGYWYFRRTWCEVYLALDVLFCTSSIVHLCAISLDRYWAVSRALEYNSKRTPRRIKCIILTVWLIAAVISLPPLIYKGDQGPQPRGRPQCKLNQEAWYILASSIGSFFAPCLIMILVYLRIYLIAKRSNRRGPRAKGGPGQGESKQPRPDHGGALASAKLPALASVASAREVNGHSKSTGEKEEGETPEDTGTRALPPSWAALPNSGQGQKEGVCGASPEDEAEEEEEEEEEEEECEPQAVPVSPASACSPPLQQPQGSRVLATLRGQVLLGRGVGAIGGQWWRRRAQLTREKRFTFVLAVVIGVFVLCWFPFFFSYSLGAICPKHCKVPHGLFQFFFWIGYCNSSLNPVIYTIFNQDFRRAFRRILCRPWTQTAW

168 GPCRs [2] = target: T2, 168 GPCRs (Homo sapiens, UniProt P21462)
T2 construct: host or cells: PathHunter cell lines
T2 sequence (P21462 1-350): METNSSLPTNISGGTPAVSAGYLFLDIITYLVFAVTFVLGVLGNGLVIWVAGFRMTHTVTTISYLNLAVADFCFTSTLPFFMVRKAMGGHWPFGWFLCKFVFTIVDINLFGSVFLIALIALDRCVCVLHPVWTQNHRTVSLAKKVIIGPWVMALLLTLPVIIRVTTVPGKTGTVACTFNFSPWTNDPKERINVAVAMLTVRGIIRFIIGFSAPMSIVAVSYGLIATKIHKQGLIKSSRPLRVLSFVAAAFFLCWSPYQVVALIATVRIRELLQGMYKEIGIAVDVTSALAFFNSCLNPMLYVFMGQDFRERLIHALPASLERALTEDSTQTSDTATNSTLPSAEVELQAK

168 GPCRs [3] = target: T3, 168 GPCRs (Homo sapiens, UniProt P30872); settings: SSTR1
T3 construct: host or cells: PathHunter cell lines

168 GPCRs [4] = target: T4, 168 GPCRs (Homo sapiens, UniProt P41146); settings: OPRL1
T4 construct: host or cells: PathHunter cell lines

168 GPCRs [5] = target: T5, 168 GPCRs (Homo sapiens, UniProt P47901); settings: AVPR1B
T5 construct: host or cells: PathHunter cell lines
T5 sequence (P47901 1-424): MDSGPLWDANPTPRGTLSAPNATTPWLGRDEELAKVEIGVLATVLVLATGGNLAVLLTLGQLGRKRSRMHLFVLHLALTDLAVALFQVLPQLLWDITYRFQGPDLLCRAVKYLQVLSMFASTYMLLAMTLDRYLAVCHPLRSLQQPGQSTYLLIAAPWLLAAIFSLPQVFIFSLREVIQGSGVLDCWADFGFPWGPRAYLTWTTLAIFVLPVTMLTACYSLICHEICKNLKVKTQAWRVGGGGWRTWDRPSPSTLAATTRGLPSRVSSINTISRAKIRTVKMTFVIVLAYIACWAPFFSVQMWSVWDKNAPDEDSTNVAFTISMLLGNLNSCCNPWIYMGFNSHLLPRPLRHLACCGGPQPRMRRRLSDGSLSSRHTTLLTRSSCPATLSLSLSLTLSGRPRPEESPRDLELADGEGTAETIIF

168 GPCRs [6] = target: T6, 168 GPCRs (Homo sapiens, UniProt P48145)
T6 construct: host or cells: PathHunter cell lines
T6 sequence (P48145 1-328): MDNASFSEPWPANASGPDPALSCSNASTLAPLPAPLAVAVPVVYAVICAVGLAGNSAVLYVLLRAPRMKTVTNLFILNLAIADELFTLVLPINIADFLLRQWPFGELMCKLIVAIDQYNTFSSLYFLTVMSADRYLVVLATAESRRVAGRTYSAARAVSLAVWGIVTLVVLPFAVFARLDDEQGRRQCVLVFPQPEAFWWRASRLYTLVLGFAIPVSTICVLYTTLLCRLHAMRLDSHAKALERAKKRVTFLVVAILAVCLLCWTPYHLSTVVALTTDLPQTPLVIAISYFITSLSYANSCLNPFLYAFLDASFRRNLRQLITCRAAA

168 GPCRs [7] = target: T7, 168 GPCRs (Homo sapiens, UniProt Q96LB2)
T7 construct: host or cells: PathHunter cell lines
T7 sequence (Q96LB2 whole entry): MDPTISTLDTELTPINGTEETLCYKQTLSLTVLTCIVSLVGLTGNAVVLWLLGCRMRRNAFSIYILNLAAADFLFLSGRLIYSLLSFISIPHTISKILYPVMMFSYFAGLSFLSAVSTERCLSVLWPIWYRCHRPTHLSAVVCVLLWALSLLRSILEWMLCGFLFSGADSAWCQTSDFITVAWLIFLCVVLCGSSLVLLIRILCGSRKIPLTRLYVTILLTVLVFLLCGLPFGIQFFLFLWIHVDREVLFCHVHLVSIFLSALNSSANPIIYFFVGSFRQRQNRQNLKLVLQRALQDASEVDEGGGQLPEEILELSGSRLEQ

T4 sequence (P41146 whole entry): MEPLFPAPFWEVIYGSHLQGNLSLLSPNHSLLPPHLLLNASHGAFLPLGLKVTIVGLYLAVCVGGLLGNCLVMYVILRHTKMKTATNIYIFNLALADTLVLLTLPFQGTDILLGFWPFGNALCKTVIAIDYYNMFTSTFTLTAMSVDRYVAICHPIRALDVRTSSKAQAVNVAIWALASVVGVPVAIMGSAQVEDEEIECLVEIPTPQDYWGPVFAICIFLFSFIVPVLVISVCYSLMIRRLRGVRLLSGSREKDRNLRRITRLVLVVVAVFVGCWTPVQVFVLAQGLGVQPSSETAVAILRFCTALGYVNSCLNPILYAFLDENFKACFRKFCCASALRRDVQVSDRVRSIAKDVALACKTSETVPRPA
T3 sequence (P30872 whole entry): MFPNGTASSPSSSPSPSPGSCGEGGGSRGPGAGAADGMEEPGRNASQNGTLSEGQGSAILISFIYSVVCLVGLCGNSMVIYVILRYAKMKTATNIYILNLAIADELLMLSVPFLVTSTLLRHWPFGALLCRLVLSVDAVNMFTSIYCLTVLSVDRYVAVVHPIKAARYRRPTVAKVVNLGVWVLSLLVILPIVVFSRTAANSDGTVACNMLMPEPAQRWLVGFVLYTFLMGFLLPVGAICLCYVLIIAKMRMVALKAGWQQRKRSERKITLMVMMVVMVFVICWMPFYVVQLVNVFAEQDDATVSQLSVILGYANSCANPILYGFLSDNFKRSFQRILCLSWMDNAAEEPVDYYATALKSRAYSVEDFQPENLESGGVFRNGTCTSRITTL

Structure (SMILES) | % Agonist Activity (168 GPCRs [1]; 1 uM) | % Antagonist Activity (168 GPCRs [1]; 1 uM) | % Agonist Activity (168 GPCRs [1]; 10 uM) | % Antagonist Activity (168 GPCRs [1]; 10 uM) | % Agonist Activity (168 GPCRs [2]; FPR1, 1 uM) | % Antagonist Activity (168 GPCRs [2]; FPR1, 1 uM) | % Agonist Activity (168 GPCRs [2]; FPR1, 10 uM) | % Antagonist Activity (168 GPCRs [2]; FPR1, 10 uM) | % Agonist Activity (168 GPCRs [3]; Conc 1 uM) | % Antagonist Activity (168 GPCRs [3]; Conc 1 uM) | % Agonist Activity (168 GPCRs [3]; Conc 10 uM) | % Antagonist Activity (168 GPCRs [3]; Conc 10 uM) | % Agonist Activity (168 GPCRs [4]; Conc 1 uM) | % Antagonist Activity (168 GPCRs [4]; Conc 1 uM) | % Agonist Activity (168 GPCRs [4]; Conc 10 uM) | % Antagonist Activity (168 GPCRs [4]; Conc 10 uM) | % Agonist Activity (168 GPCRs [5]; 1 uM) | % Antagonist Activity (168 GPCRs [5]; 1 uM) | % Agonist Activity (168 GPCRs [5]; 10 uM) | % Antagonist Activity (168 GPCRs [5]; 10 uM) | also measured
CNC(C)Cc1ccc2c(c1)OCO2 (centres unmarked) [MDMA, 3,4-Methylenedioxy methamphetamine, reference compound] | 5.2% | 12.8% | 1.3% | 2.9% | 4.4% | 4.5% | 3.7% | 2.5% | -9% | 5.6% | -12.3% | 7.5% | 0.5% | -6.7% | -0.4% | -3.2% | -1% | 8.1% | -1.8% | 0.8% | % Agonist Activity (168 GPCRs [6]; NPBWR1, 1 uM): -10.2%; % Antagonist Activity (168 GPCRs [6]; NPBWR1, 1 uM): -7.5%; % Agonist Activity (168 GPCRs [6]; NPBWR1, 10 uM): -13.4%; % Antagonist Activity (168 GPCRs [6]; NPBWR1, 10 uM): -8.5%; % Agonist Activity (168 GPCRs [7]; MRGPRX1, 1 uM): 0.2%; % Antagonist Activity (168 GPCRs [7]; MRGPRX1, 1 uM): 5.1%; % Agonist Activity (168 GPCRs [7]; MRGPRX1, 10 uM): -0.4%; % Antagonist Activity (168 GPCRs [7]; MRGPRX1, 10 uM): 7.6%
CNC(C)C(=O)c1ccc2c(c1)OCO2 (centres unmarked) [methylone] | -1% | 8.5% | 1.3% | 6.3% | 2.2% | -4.9% | 0.5% | -11.4% | -5.3% | 32.4% | -7.4% | 20.9% | -1.6% | 17.1% | -2.3% | 13.2% | -1.2% | 9.8% | -1.1% | 3.5% | % Agonist Activity (168 GPCRs [6]; NPBWR1, 1 uM): 1.6%; % Antagonist Activity (168 GPCRs [6]; NPBWR1, 1 uM): 17.1%; % Agonist Activity (168 GPCRs [6]; NPBWR1, 10 uM): -1.9%; % Antagonist Activity (168 GPCRs [6]; NPBWR1, 10 uM): 25.1%; % Agonist Activity (168 GPCRs [7]; MRGPRX1, 1 uM): -1.7%; % Antagonist Activity (168 GPCRs [7]; MRGPRX1, 1 uM): -6.5%; % Agonist Activity (168 GPCRs [7]; MRGPRX1, 10 uM): -1.5%; % Antagonist Activity (168 GPCRs [7]; MRGPRX1, 10 uM): -10.2%
